Measured values taken from PMC5218480 (PLoS ONE, 2017).

System: MV-4-11 cells
Assay: Gene expression microarray analysis (Affymetrix PrimeView) and GSEA
Assay type: cell-based, human
Set-up: RFU PODN (11730768_x_at) / Fold change /veh PODN (11730768_x_at) / RFU LINC00158 (11744669_a_at) / Fold change /veh LINC00158 (11744669_a_at) / RFU DUSP10 (11751237_a_at) / Fold change /veh DUSP10 (11751237_a_at) / RFU ID3 (11757404_x_at) / Fold change /veh ID3 (11757404_x_at) / RFU PLEKHG5 (11737974_s_at) / Fold change /veh PLEKHG5 (11737974_s_at) / RFU LRRC4B (11730491_at) / Fold change /veh LRRC4B (11730491_at) / RFU GIMAP4 (11747438_a_at) / Fold change /veh GIMAP4 (11747438_a_at) / RFU KRT8 (11758183_x_at) / Fold change /veh KRT8 (11758183_x_at) / RFU CNN1 (11734310_a_at) / Fold change /veh CNN1 (11734310_a_at) / RFU VPS37D (11726825_at) / Fold change /veh VPS37D (11726825_at) / RFU C10orf10 (11716522_x_at) / Fold change /veh C10orf10 (11716522_x_at) / RFU KIR2DL2 /// KIR2DL4 /// KIR2DL5A /// KIR2DL5B /// KIR2DS1 /// KIR2DS2 /// KIR2DS3 /// KIR2DS4 /// KIR3DL3 /// KIR3DL3 /// KIR3DS1 (11738374_at) / Fold change /veh KIR2DL2 /// KIR2DL4 /// KIR2DL5A /// KIR2DL5B /// KIR2DS1 /// KIR2DS2 /// KIR2DS3 /// KIR2DS4 /// KIR3DL3 /// KIR3DL3 /// KIR3DS1 (11738374_at) / RFU C1QL1 (11718748_at) / Fold change /veh C1QL1 (11718748_at) / RFU TMPRSS4 (11747572_a_at) / Fold change /veh TMPRSS4 (11747572_a_at) / RFU HAMP (11756126_x_at) / Fold change /veh HAMP (11756126_x_at) / RFU RNFT2 (11725882_a_at) / Fold change /veh RNFT2 (11725882_a_at) / RFU NR4A2 (11747474_a_at) / Fold change /veh NR4A2 (11747474_a_at) / RFU ABCC12 (11746883_a_at) / Fold change /veh ABCC12 (11746883_a_at) / RFU TMEM136 (11760407_x_at) / Fold change /veh TMEM136 (11760407_x_at) / RFU CLDN22 /// WWC2 (11732394_at) / Fold change /veh CLDN22 /// WWC2 (11732394_at) / RFU HLA-DPB1 (11760878_x_at) / Fold change /veh HLA-DPB1 (11760878_x_at) / RFU SPINT1 (11716480_a_at) / Fold change /veh SPINT1 (11716480_a_at) / RFU GAP43 (11754022_s_at) / Fold change /veh GAP43 (11754022_s_at) / RFU A4GNT (11735810_at) / Fold change /veh A4GNT (11735810_at) / RFU PRB3 (11715151_x_at) / Fold change /veh PRB3 (11715151_x_at) / RFU TUBB4B (11761932_at) / Fold change /veh TUBB4B (11761932_at) / RFU CAPN14 (11732068_a_at) / Fold change /veh CAPN14 (11732068_a_at) / RFU TMCC2 (11721928_a_at) / Fold change /veh TMCC2 (11721928_a_at) / RFU IRGQ (11745062_a_at) / Fold change /veh IRGQ (11745062_a_at) / RFU FAM174B (11720279_a_at) / Fold change /veh FAM174B (11720279_a_at) / RFU TMPRSS4 (11748680_a_at) / Fold change /veh TMPRSS4 (11748680_a_at) / RFU FAM212B (11763350_a_at) / Fold change /veh FAM212B (11763350_a_at) / RFU PLEKHG5 (11743358_a_at) / Fold change /veh PLEKHG5 (11743358_a_at) / RFU ZSCAN30 (11745921_a_at) / Fold change /veh ZSCAN30 (11745921_a_at) / RFU CMKLR1 (11741424_a_at) / Fold change /veh CMKLR1 (11741424_a_at) / RFU LOC101060620 /// MAPK8IP1 (11723275_at) / Fold change /veh LOC101060620 /// MAPK8IP1 (11723275_at) / RFU SPTSSB (11747773_x_at) / Fold change /veh SPTSSB (11747773_x_at) / RFU PRSS12 (11739890_at) / Fold change /veh PRSS12 (11739890_at) / RFU BIN1 (11741810_x_at) / Fold change /veh BIN1 (11741810_x_at) / RFU WNT11 (11732464_a_at) / Fold change /veh WNT11 (11732464_a_at) / RFU C10orf10 (11716521_a_at) / Fold change /veh C10orf10 (11716521_a_at) / RFU C5orf56 (11738089_at) / Fold change /veh C5orf56 (11738089_at) / RFU CYB561 (11721691_x_at) / Fold change /veh CYB561 (11721691_x_at) / RFU ANKRD19P (11752326_a_at) / Fold change /veh ANKRD19P (11752326_a_at) / RFU OR2T12 /// OR2T33 /// OR2T8 (11738714_s_at) / Fold change /veh OR2T12 /// OR2T33 /// OR2T8 (11738714_s_at) / RFU VCAN (11748164_a_at) / Fold change /veh VCAN (11748164_a_at) / RFU JSRP1 (11732532_at) / Fold change /veh JSRP1 (11732532_at) / RFU KRTAP10-11 (11738290_x_at) / Fold change /veh KRTAP10-11 (11738290_x_at) / RFU MYO3A (11730013_a_at) / Fold change /veh MYO3A (11730013_a_at) / RFU EBF3 (11725865_a_at) / Fold change /veh EBF3 (11725865_a_at) / RFU CAMK2N1 (11719241_x_at) / Fold change /veh CAMK2N1 (11719241_x_at) / RFU C5orf56 (11738088_a_at) / Fold change /veh C5orf56 (11738088_a_at) / RFU OLFML3 (11715873_a_at) / Fold change /veh OLFML3 (11715873_a_at) / RFU LOC100653217 /// NTM (11731650_a_at) / Fold change /veh LOC100653217 /// NTM (11731650_a_at) / RFU MAPK11 (11762145_a_at) / Fold change /veh MAPK11 (11762145_a_at) / RFU FIZ1 (11724087_x_at) / Fold change /veh FIZ1 (11724087_x_at) / RFU OASL (11726364_x_at) / Fold change /veh OASL (11726364_x_at) / RFU SOX15 (11748057_x_at) / Fold change /veh SOX15 (11748057_x_at) / RFU CD79A (11719716_a_at) / Fold change /veh CD79A (11719716_a_at) / RFU HIST1H1D (11736915_at) / Fold change /veh HIST1H1D (11736915_at) / RFU CASKIN2 (11723855_a_at) / Fold change /veh CASKIN2 (11723855_a_at) / RFU LOC730098 (11760151_x_at) / Fold change /veh LOC730098 (11760151_x_at) / RFU OR4N2 (11742367_at) / Fold change /veh OR4N2 (11742367_at) / RFU PRRT2 (11749266_a_at) / Fold change /veh PRRT2 (11749266_a_at) / RFU SNX32 (11753110_a_at) / Fold change /veh SNX32 (11753110_a_at) / RFU CDHR5 (11726645_a_at) / Fold change /veh CDHR5 (11726645_a_at) / RFU RCAN1 (11760418_a_at) / Fold change /veh RCAN1 (11760418_a_at) / RFU FAM167A (11723789_a_at) / Fold change /veh FAM167A (11723789_a_at) / RFU FAM26E (11764081_at) / Fold change /veh FAM26E (11764081_at) / RFU ISYNA1 (11749810_s_at) / Fold change /veh ISYNA1 (11749810_s_at) / RFU ACY1 (11761880_at) / Fold change /veh ACY1 (11761880_at) / RFU 11764098_at / Fold change /veh 11764098_at / RFU SAMD14 (11745864_x_at) / Fold change /veh SAMD14 (11745864_x_at) / RFU NPB (11741838_a_at) / Fold change /veh NPB (11741838_a_at) / RFU TMPRSS6 (11731388_a_at) / Fold change /veh TMPRSS6 (11731388_a_at) / RFU KRTAP10-2 (11738614_at) / Fold change /veh KRTAP10-2 (11738614_at) / RFU ARHGAP8 /// PRR5-ARHGAP8 (11727945_x_at) / Fold change /veh ARHGAP8 /// PRR5-ARHGAP8 (11727945_x_at) / RFU KRTAP5-7 /// NADSYN1 (11734609_at) / Fold change /veh KRTAP5-7 /// NADSYN1 (11734609_at) / RFU RASL12 (11751679_a_at) / Fold change /veh RASL12 (11751679_a_at) / RFU CDKN2B (11736163_a_at) / Fold change /veh CDKN2B (11736163_a_at) / RFU PRF1 (11729649_at) / Fold change /veh PRF1 (11729649_at) / RFU, ZNF638 /// ZNF638-IT1 / Fold change vs veh, ZNF638 /// ZNF638-IT1 / RFU, PANK3 / Fold change vs veh, PANK3 / RFU, SH3YL1 / Fold change vs veh, SH3YL1 / RFU, ZEB2 / Fold change vs veh, ZEB2 / RFU, NRIP1 / Fold change vs veh, NRIP1 / RFU, PTTG1IP / Fold change vs veh, PTTG1IP / RFU, CAPN2 / Fold change vs veh, CAPN2 / RFU, MED14 / Fold change vs veh, MED14 / RFU, SNORA58 / Fold change vs veh, SNORA58 / RFU, C1orf63 / Fold change vs veh, C1orf63 / RFU, LRRFIP1 / Fold change vs veh, LRRFIP1 / RFU, NDUFAF7 / Fold change vs veh, NDUFAF7 / RFU, SLC12A2 / Fold change vs veh, SLC12A2 / RFU, IBTK / Fold change vs veh, IBTK / RFU, ESF1 / Fold change vs veh, ESF1 / Fold change vs veh, TMEM50B / RFU, TAOK1 / Fold change vs veh, TAOK1 / RFU, ACBD3 / Fold change vs veh, ACBD3 / RFU, TMA16 / Fold change vs veh, TMA16 / RFU, RWDD3 / Fold change vs veh, RWDD3 / RFU, BCAT1 / Fold change vs veh, BCAT1 / RFU, EDEM3 / Fold change vs veh, EDEM3 / RFU, TMEM33 / Fold change vs veh, TMEM33 / RFU, WDR75 / Fold change vs veh, WDR75 / RFU, AHCTF1 / Fold change vs veh, AHCTF1 / RFU, TFRC / Fold change vs veh, TFRC / RFU, ZDHHC17 / Fold change vs veh, ZDHHC17 / RFU, NOM1 / Fold change vs veh, NOM1 / RFU, ARL8B / Fold change vs veh, ARL8B / RFU, ZBTB11 / Fold change vs veh, ZBTB11 / RFU, TAMM41 / Fold change vs veh, TAMM41 / RFU, KIAA1704 /// LOC100996395 / Fold change vs veh, KIAA1704 /// LOC100996395 / RFU, ING1 / Fold change vs veh, ING1 / RFU, TRMT61B / Fold change vs veh, TRMT61B / RFU, FUBP3 / Fold change vs veh, FUBP3 / RFU, TP53 / Fold change vs veh, TP53 / RFU, TNKS2 / Fold change vs veh, TNKS2 / RFU, ZFP14 / Fold change vs veh, ZFP14 / RFU, ACTR2 / Fold change vs veh, ACTR2 / RFU, PPP3R1 / Fold change vs veh, PPP3R1 / RFU, PIK3R1 / Fold change vs veh, PIK3R1 / RFU, HNRNPA1 / Fold change vs veh, HNRNPA1 / RFU, RNF170 / Fold change vs veh, RNF170 / RFU, ZNF28 / Fold change vs veh, ZNF28 / RFU, RNGTT / Fold change vs veh, RNGTT / RFU, OGT / Fold change vs veh, OGT / RFU, BRD1 / Fold change vs veh, BRD1 / RFU, MARS / Fold change vs veh, MARS / RFU, ZNF655 / Fold change vs veh, ZNF655 / RFU, FAHD1 / Fold change vs veh, FAHD1 / RFU, BDP1 / Fold change vs veh, BDP1 / RFU, LRRCC1 / Fold change vs veh, LRRCC1 / RFU, ARID1A / Fold change vs veh, ARID1A / RFU, ZNF146 / Fold change vs veh, ZNF146 / RFU, ZNF330 / Fold change vs veh, ZNF330 / RFU, GPN3 / Fold change vs veh, GPN3 / RFU, C9orf123 / Fold change vs veh, C9orf123 / RFU, N4BP2L2 / Fold change vs veh, N4BP2L2 / RFU, ARFIP1 / Fold change vs veh, ARFIP1 / RFU, FAM179B / Fold change vs veh, FAM179B / RFU, BCL10 / Fold change vs veh, BCL10 / RFU, UHRF1BP1L / Fold change vs veh, UHRF1BP1L / RFU, BET1 / Fold change vs veh, BET1 / RFU, CNOT2 / Fold change vs veh, CNOT2 / RFU, ZNF268 / Fold change vs veh, ZNF268 / Fold change vs veh, ZNF507 / RFU, DGCR2 / Fold change vs veh, DGCR2 / RFU, WDSUB1 / Fold change vs veh, WDSUB1 / Fold change vs veh, HSP90B1 /// MIR3652 / RFU, ADSS / Fold change vs veh, ADSS / RFU, GK / Fold change vs veh, GK / RFU, ZNF148 / Fold change vs veh, ZNF148 / RFU, TAF9 / Fold change vs veh, TAF9 / RFU, SLC1A5 / Fold change vs veh, SLC1A5 / RFU, SLMO2 / Fold change vs veh, SLMO2 / RFU, ABCC4 / Fold change vs veh, ABCC4 / RFU, LOC101060439 /// RAP1B / Fold change vs veh, LOC101060439 /// RAP1B / RFU, RFX7 / Fold change vs veh, RFX7 / RFU, GTPBP10 / Fold change vs veh, GTPBP10 / RFU, CNEP1R1 / Fold change vs veh, CNEP1R1 / RFU, BIVM-ERCC5 /// ERCC5 / Fold change vs veh, BIVM-ERCC5 /// ERCC5 / RFU, ILF3 / Fold change vs veh, ILF3 / RFU 11762660_at / Fold change /veh 11762660_at / RFU VCAN (11757783_s_at) / Fold change /veh VCAN (11757783_s_at) / RFU DDX43 (11728927_at) / Fold change /veh DDX43 (11728927_at) / RFU KRT8 (11758188_x_at) / Fold change /veh KRT8 (11758188_x_at) / RFU NKD1 (11759106_at) / Fold change /veh NKD1 (11759106_at) / RFU SRD5A1 (11742802_a_at) / Fold change /veh SRD5A1 (11742802_a_at) / RFU TPSAB1 /// TPSB2 (11721975_s_at) / Fold change /veh TPSAB1 /// TPSB2 (11721975_s_at) / RFU GSTM3 (11746129_a_at) / Fold change /veh GSTM3 (11746129_a_at) / RFU IL23R (11737362_x_at) / Fold change /veh IL23R (11737362_x_at) / RFU TMEM51 (11727254_a_at) / Fold change /veh TMEM51 (11727254_a_at) / RFU PIWIL2 (11732686_x_at) / Fold change /veh PIWIL2 (11732686_x_at) / RFU ORM1 (11744905_x_at) / Fold change /veh ORM1 (11744905_x_at) / RFU CCDC152 (11743942_at) / Fold change /veh CCDC152 (11743942_at) / RFU ECM1 (11717891_a_at) / Fold change /veh ECM1 (11717891_a_at) / RFU IL23R (11748794_a_at) / Fold change /veh IL23R (11748794_a_at) / RFU TNFAIP8L3 (11732012_x_at) / Fold change /veh TNFAIP8L3 (11732012_x_at) / RFU MBOAT4 (11741988_at) / Fold change /veh MBOAT4 (11741988_at) / RFU 11764193_at / Fold change /veh 11764193_at / RFU TMEM53 (11763286_at) / Fold change /veh TMEM53 (11763286_at) / RFU MAGEB2 (11727129_at) / Fold change /veh MAGEB2 (11727129_at) / RFU TMEM200A (11744735_a_at) / Fold change /veh TMEM200A (11744735_a_at) / RFU CCDC152 (11751479_a_at) / Fold change /veh CCDC152 (11751479_a_at) / RFU FAM211A (11726209_a_at) / Fold change /veh FAM211A (11726209_a_at) / RFU RGS16 (11746705_a_at) / Fold change /veh RGS16 (11746705_a_at) / RFU VCAN (11755009_s_at) / Fold change /veh VCAN (11755009_s_at) / RFU RHOB (11743442_s_at) / Fold change /veh RHOB (11743442_s_at) / RFU RGS16 (11720943_a_at) / Fold change /veh RGS16 (11720943_a_at) / RFU RGS16 (11720944_at) / Fold change /veh RGS16 (11720944_at) / RFU, VPS4B / Fold change vs veh, VPS4B / RFU, CREB1 / Fold change vs veh, CREB1 / RFU, DNAJC13 / Fold change vs veh, DNAJC13 / RFU, GNAQ / Fold change vs veh, GNAQ / RFU, CDK5R1 / Fold change vs veh, CDK5R1 / RFU, ZRANB3 / Fold change vs veh, ZRANB3 / RFU, CUL4A / Fold change vs veh, CUL4A / RFU, CCNY / Fold change vs veh, CCNY / RFU, UFL1 / Fold change vs veh, UFL1 / RFU, COG3 / Fold change vs veh, COG3 / RFU, DIAPH2 / Fold change vs veh, DIAPH2 / RFU, SKA2 / Fold change vs veh, SKA2 / RFU, AFF3 / Fold change vs veh, AFF3 / RFU, LMF1 / Fold change vs veh, LMF1 / RFU, IPO11 / Fold change vs veh, IPO11 / RFU, DFFB / Fold change vs veh, DFFB / RFU, FOXP1 / Fold change vs veh, FOXP1 / RFU, CARD8 / Fold change vs veh, CARD8 / RFU, STRN3 / Fold change vs veh, STRN3 / RFU, ADK / Fold change vs veh, ADK / RFU, RASSF2 / Fold change vs veh, RASSF2 / RFU, WIPF1 / Fold change vs veh, WIPF1 / RFU, LARP1B / Fold change vs veh, LARP1B / RFU, RASA1 / Fold change vs veh, RASA1 / RFU, RB1 / Fold change vs veh, RB1 / RFU, PPFIA1 / Fold change vs veh, PPFIA1 / RFU, MAT2A / Fold change vs veh, MAT2A / RFU, CCT5 / Fold change vs veh, CCT5 / RFU, WDR92 / Fold change vs veh, WDR92 / RFU, CUX1 / Fold change vs veh, CUX1 / RFU, TTC7A / Fold change vs veh, TTC7A / RFU, TMEM135 / Fold change vs veh, TMEM135 / RFU, DEPTOR / Fold change vs veh, DEPTOR / RFU, CPM / Fold change vs veh, CPM / RFU, DNAJB6 / Fold change vs veh, DNAJB6 / RFU, CACNA2D3 / Fold change vs veh, CACNA2D3 / RFU, DTX4 / Fold change vs veh, DTX4 / RFU, TFCP2 / Fold change vs veh, TFCP2 / RFU, GMCL1 /// GMCL1P1 / Fold change vs veh, GMCL1 /// GMCL1P1 / RFU, AEBP2 / Fold change vs veh, AEBP2 / RFU, SNHG1 /// SNORD22 /// SNORD25 /// SNORD26 /// SNORD27 /// SNORD28 /// SNORD29 /// SNORD31 / Fold change vs veh, SNHG1 /// SNORD22 /// SNORD25 /// SNORD26 /// SNORD27 /// SNORD28 /// SNORD29 /// SNORD31 / Fold change (Aza/veh), C12orf56 (ProbeSet 11735607_a_at) / Fold change (ACY-1035/veh), C12orf56 (ProbeSet 11735607_a_at) / Fold change (Aza/veh), FGFR1OP (ProbeSet 11751329_s_at) / Fold change (ACY-1035/veh), FGFR1OP (ProbeSet 11751329_s_at) / Fold change (Aza/veh), VPS36 (ProbeSet 11739960_a_at) / Fold change (ACY-1035/veh), VPS36 (ProbeSet 11739960_a_at) / RFU SYPL1 (11715823_x_at) / Fold change /veh SYPL1 (11715823_x_at) / RFU IGFBP7 (11715501_s_at) / Fold change /veh IGFBP7 (11715501_s_at) / RFU REEP3 (11722064_at) / Fold change /veh REEP3 (11722064_at) / RFU IGLL1 (11728026_x_at) / Fold change /veh IGLL1 (11728026_x_at): dose or concentration left out as unconfirmed
Settings: ProbeSet 11743882_a_at; LIST D

Question: For `Nc1ccc(-c2cccs2)cc1NC(=O)c1ccc2c(c1)cc(C1CC1)n2CCN1CCOCC1` [ACY-1035], which “RFU, STRN3” value is on record?
Answer: 114.91 RFU
